Laboratory results published in publication PMC11676996, “Inhibitory Effects of Sulfur Derivatives on Leishmania tarentolae Cell Viability and Secreted Acid Phosphatase In Vitro” (Microorganisms, 2024).

Tested on: T1, secreted acid phosphatase (SAP)
T1 construct: native enzyme activity in cell-free culture supernatant
Assay: pNPP phosphatase assay, compound added directly to control cell-free supernatant, dose-dependent
Assay type: biochemical, Leishmania tarentolae

## COc1cc(/C=N/NC(=S)SC)cc(OC)c1O [ZZ1-04]
  IC50: 60 to 80 µM
